# From US20220304992A1, “METHODS OF REJUVENATING AGED TISSUE BY INHIBITING 15-HYDROXYPROSTAGLANDIN DEHYDROGENASE (15-PGDH)” (The Board of Trustees of the Leland Stanford Junior …, priority 2019, published 2022)
# Tested on: atrogene and other transcript levels in aged muscles
# Assay: Quantitative RT-PCR of treated aged muscle tissue
# Format: in vivo, mouse
# Source text: We isolated RNA from MuSCs using the RNeasy Micro Kit (Qiagen). For muscle samples, we snap froze the tissue in liquid nitrogen, homogenized muscles in Trizol (Invitrogen) using the FastPrep FP120 homogenizer (MP Biomedicals), and then isolated RNA. We reverse-transcribed cDNA from total mRNA from each sample using the SensiFAST™ cDNA Synthesis Kit (Bioline). We subjected cDNA to RT-PCR using SYBR Green PCR Master Mix (Applied Biosystems) or TaqMan Assays (Applied Biosystems) in an ABI 7900HT Real-Time PCR System (Applied Biosystems). We cycled samples at 95° C. for 10 min and then 40 cycles at 95° C. for 15 s and 60° C. for 1 min. To quantify relative transcript levels, we used 2-ΔΔCt to compare treated and untreated samples and expressed the results relative to Gapdh.
# For SYBR Green qRT-PCR, we used the following primer sequences: Gapdh, 30 forward 5′-[…]-3′, reverse 5′-[…]-3′; Hpgd, forward 5′-[…] -3′, reverse 5′-[…]-3′; Ptger1, forward 5′ […]-3′, reverse 5′-[…]-3′, Ptger2, forward 5′-[…]-3′, reverse 5′-[…]-3′, Cox2, forward, 5′-[…]-3′, reverse 5′-[…]-3′; Fbxo32, forward 5′-[…]-3′, reverse 5′-[…]-3′. For murine senescence markers and senescence associated markers we used the previously described primers (6).
# TaqMan Assays (Applied Biosystems) were used to quantify Pax7, Myh, p21, Ptger3 and Ptger4 in samples according to the manufacturer instructions with the TaqMan Universal PCR Master Mix reagent kit (Applied Biosystems). Transcript levels were expressed relative to Gapdh levels. For SYBR Green qPCR, Gapdh qPCR was used to normalize input cDNA samples. For Taqman qPCR, multiplex qPCR enabled target signals (FAM) to be normalized individually by their internal Gapdh signals (VIC).
# We isolated RNA from MuSCs, myoblasts and myotubes using the RNeasy Kit (Qiagen). Muscle samples were snap frozen in liquid nitrogen, then homogenized in Trizol (Invitrogen) using the FastPrep FP120 homogenizer (MP Biomedicals) before isolating RNA. We reverse-transcribed cDNA from total mRNA from each sample using the SensiFAST™ cDNA Synthesis Kit (Bioline). We subjected cDNA to RT-PCR using SYBR Green PCR Master Mix (Applied Biosystems) or TaqMan Assays (Applied Biosystems) in an ABI 7900HT Real-Time PCR System (Applied Biosystems). […] To quantify relative transcript levels, we used 2-ΔΔCt to compare treated and untreated samples and expressed the results relative to Gapdh. […]
# For murine senescence markers and senescence associated markers we used the previously described primers (2). TaqMan Assays (Applied Biosystems) were used to quantify p21, Mstn, Ptger3 and Ptger4 in samples according to the manufacturer instructions with the TaqMan Universal PCR Master Mix reagent kit (Applied Biosystems). […] Mitochondrial copy number was quantified by using method and primers described previously (14).
smiles,measurement,setting,value
"CCCC[S+]([O-])c1sc2nc(-c3cccs3)cc(-c3ccccc3)c2c1N (stereo not shown) [SW033291, 2-(butylsulfinyl)-4-phenyl-6-(thiophen-2-yl)thieno[2,3-b]pyridin-3-amine]","other aging, inflammatory and autophagy markers","aged mice, SW treatment",no significant changes
same,Pgc1α mRNA level,"aged muscles, SW treatment",restored to that seen in young muscles
same,expression of Fbxo32 (Atrogin1) at the mRNA level,"aged muscles, SW treatment",decreased expression
same,"expression of atrogenes (Atrogin-1, MuRF1, Musa1, Smart) and Traf6 by RT-qPCR","aged muscles, SW vs vehicle",diminished
